From US7144867B2, “Anticancer glycoside compounds” (priority 2004, dated 2006) come the findings set out here.

Series [1] concerns HUVEC (human umbilical vein endothelial cells). In words: Angiogenesis, tube formation on Matrigel. Type of series: cell-based. The note with it: for %, Inhibition of the total tube length (Mean ± SEM, n = 2): HUVEC, 18 hours. On the procedure: Test Substance and Concentration.
Cell Line and Culture Media.
Evaluation of anti-proliferation for test substances. Matrigel matrix was thawed, kept on ice at 4° C. and 50 μL transferred to each well of a 96-microwell tissue culture plate. The plate was incubated at 37° C. for at least one hour to allow the matrix solution to solidify before treatment.
Aliquots of 200 μl of (HUVEC) suspension (about 1.5×10^4 cells/well) were placed in 96-well microtiter plate. Two microliters of compound test solution or vehicle (40% DMSO) was then added per well in duplicate and incubated at 5% CO2 at 37° C. for 18 hours. The final concentration of DMSO was 0.4%. […] Failure to form continuous networks between cell bodies in the presence of test substance was photographed and scored as to the extent of tube disruption at a magnification of 40×. […] The minimum inhibitory concentration (MIC) was calculated to assess the effect of the test substance on angiogenesis.

For series [2], the system named is AsPC-1 cells. In words: Annexin V assay. It counts as cell-based, human. To be noted: 4 μg/mL, within 3 hours. As for the experimental part:
Annexin V assay. […] The cells were then rinsed with PBS and 500 μL of assay buffer once. Then, 200 μL of assay buffer, 4 μL of annexin-V FITC, and 20 μL of propidium iodide were added to each coverslip. The coverslip were then incubated at room temperature for 15 min in the dark and washed once with PBS. Cells were finally viewed under fluorescence microscope using a dual filter set for FITC and rhodamine, and pictures were taken using a Kodak DC 120 digital zoom camera (Eastman Kodak Company, Rochester, N.Y.).

The test system of another series is Bcl-2. In words: Western blotting, Bcl-2 in AsPC-1 cells. It counts as cell-based, human. The note with it: 4 μg/mL, time-dependent (FIG. 4). On the procedure:
(§1) Western blotting. Cells were seeded into flasks and cultured to 50% to 60% confluence for 24 hours. Cells were then placed in serum-free medium with or without 4 μg/mL frondoside A for periods of 0, 24, 48 and 72 hours respectively. Proteins were extracted from attached and floating cells in lysis buffer containing 4% SDS. Protein concentrations were determined using the bicinchoninic acid assay with BSA as standard. Western blotting was carried out. In brief, equal amounts of protein in the cell lysates were separated on 15% SDS-PAGE and the proteins were transferred onto nitrocellulose membranes. After blocking non-specific sites with dried milk, membranes were incubated with the appropriate dilution of primary antibody. Membranes were then incubated with a horseradish peroxidase conjugated secondary antibody. Proteins were detected using an enhanced chemiluminescence detection system.
In general terms: Immunoblotting shows a protein as a band on a membrane.

Another series deals with caspase 3. In words: Western blotting, caspase 3 in AsPC-1 cells. Type of series: cell-based, human. To be noted: 4 μg/mL, time-dependent (FIG. 3). On the procedure: as §1
The test system of another series is cancer cells. In words: Anti-cancer / apoptotic promoting activity, method not described. To be noted: no test described for Frondoside B.
The test system of series [3] is angiogenesis in the animal. The experiment in a line: Treatment of animals, anti-angiogenic evaluation (Example 6). Type of series: in vivo. The note with it: contemplated; range of appropriate doses. As for the experimental part: Frondoside A or B is evaluated for anti-angiogenic (e.g., for research, drug screening or therapeutic purposes) in live animals. Animals (e.g., having or modeling a disease characterized by unwanted angiogenesis) are treated with a range of appropriate doses of Frondoside A or B. Exemplary dosages and dosage schedules include, but are not limited to, those described herein.

For a further series, the system named is caspase 9. In words: Western blotting, caspase 9 in AsPC-1 cells. The note with it: 4 μg/mL, time-dependent (FIG. 3). It counts as cell-based, human. As for the experimental part: as §1
Series [4] deals with AsPC-1 cells. The experiment in a line: 3H-methyl thymidine incorporation (cell proliferation assay). It counts as cell-based, human. As for the experimental part:
Cell culture. The poorly differentiated human pancreatic cancer line AsPC-1 was purchased from the American Type Culture Collection (ATCC, Manassas, Va., USA). Cells were cultured in MEM medium supplemented with penicillin G (100 U/mL), streptomycin (100 U/mL) and 10% FBS at 37° C. in humidified air with 5% CO2. Cells were harvested by incubation in trypsin-EDTA solution for 10–15 minutes. Cells were then centrifuged at 300×g for 5 minutes and cell pellets were suspended in fresh culture medium prior to seeding into culture flasks or plates.
Cell proliferation assay. Cell growth was analyzed by ^3H-methyl thymidine incorporation and cell counting. Following treatment of pancreatic cancer cells with a series of concentrations of frondoside A from 1 μg/mL to 16 μg/mL, cellular DNA synthesis was assayed by adding ^3H-methyl thymidine at 0.5 μLCi/well. After 2 hours incubation, the cells were washed twice with PBS, precipitated with 10% TCA for two hours, and solubilized from each well with 0.5 ml of 0.4 N NaOH. Incorporation of ^3H-methyl thymidine into DNA was measured by adding scintillation liquid and counting in a scintillation counter (LKB BackBeta, Wallac, Turku, Finland). For cell counting, cells were seeded in 12 wells plates and cultured with serum-free medium for 24 hours prior to frondoside A treatment and then switched to serum-free medium with or without 4 μg/mL frondoside A for the respective treatment time points (24, 48 and 72 hours). The cells were removed from the plate by trypsinization to produce a single cell suspension for cell counting. The cells were counted using Z1-Coulter Counter (Luton, UK).
(Uptake of a labelled nucleoside into DNA is a usual measure of proliferation.)

For series [5], the system named is AsPC-1 human pancreatic cancer xenografts. The experiment in a line: AsPC-1 xenografts in athymic mice. The note with it: 10 μg/kg/day intraperitoneal, 4 weeks. It counts as in vivo. As for the experimental part:
Animal Study. Athymic mice (BALB/c nu/nu, 5-week old females) were purchased from Charles River Laboratories (Wilmington, Mass.). Mice were acclimatized to the animal facility for one week prior to receiving xenografts. Xenografts of three million AsPC-1 cells were injected into the flanks of mice. Once visible tumors were evidenced 4–5 days after injection, the animals were divided equally into two groups (6 animals/group) and treated with frondoside A (10 μg/kg/day) or control vehicle (100 μL phosphate-buffered saline, PBS) by intraperitoneal injection. Animal weight and tumor size were recorded every three days. The formula used for tumor volume was (length)H(width)H(length+width/2)H0.526=volume (Naito et al., Int. J. Cancer 58:730 [1994]). After 4-weeks of treatment the animals were euthanized and the tumors were carefully dissected and tumor weights measured.

The test system of a further series is p21. In words: Western blotting, p21 in AsPC-1 cells. Type of series: cell-based, human. The note with it: 4 μg/mL, time-dependent (FIG. 5). On the procedure: as §1
The subject of the next series is caspase 7. The experiment in a line: Western blotting, caspase 7 in AsPC-1 cells. It counts as cell-based, human. To be noted: 4 μg/mL, time-dependent (FIG. 3). On the procedure:
as §1

Marks after values point to notes of the source that are not given here.

Take `COC1C(O)C(CO)OC(OC2C(O)COC(OC3C(C)OC(OC4C(OC5CCC6(C)C7CCC89C(=O)OC(C)(CCCC(C)C)C8C(OC(C)=O)CC9(C)C7=CCC6C5(C)C)OCC(OS(=O)(=O)[O-])C4O)C(OC4OCC(O)C(O)C4O)C3O)C2O)C1O.[Na+]` [Frondoside A, 3-O-methyl-β-D-glucopyranosyl-(1→3)-β-D-xylopyranosyl-(1→4)-[β-D-xylopyranosyl-(1→2)]-β-D-quinovopyranosyl-(1→2)-4-O-sodium sulfate-β-D-xylopyranosyl-3-O-holost-7(8)-en-3β-ol-16β-O-acetate]: in series [1] (100, 10 and 1 μM (≧30%)), the “inhibition of tube formation relative to the vehicle-treated controls” value is on record as “significant inhibition”. Moreover, the “%, Inhibition of the total tube length (Mean ± SEM, n = 2)” value in series [1] (0.01 μM) is recorded as 1 ± 1%; in series [1] (0.1 μM), 3 ± 4%; in [1] (1 μM), 88 ± 6^a,b %; in [1] (10 μM), 100 ± 0^a %; in [1] (100 μM) it was 100 ± 0^a %. The “MIC (Minimum Inhibitory Concentration)” value in series [1] (tube formation, significant inhibition ≧30%) worked out at 1 µM. Also, the “Annexin V binding” value in the series with AsPC-1 cells [2] is recorded as “Annexin V binding was observed”. For the same compound, the “expression of Bcl-2” value in the series with Bcl-2 is listed as “decreased expression”. Also, the “activation of caspase 3 (cleavage of procaspase 3)” value with caspase 3 was “cleaved into products of lower molecular weight”. In addition, the “apoptotic promoting activity in cancer cells” value in the series with cancer cells is “apoptotic promoting activity”. Also, in [3], the “angiogenesis in the animal” value is “inhibits angiogenesis”. The “activation of caspase 9” value with caspase 9 is on record as “reduction in the amounts of the respective procaspase forms”. Also, in the series on AsPC-1 cells [4] (4 μg/mL, within 24 hours), the “reduction of incorporation of 3H-methyl thymidine into DNA” value is “approximately 50%”. Moreover, the “inhibition of thymidine incorporation” value in the series with AsPC-1 cells [4] (AsPC-1 cells, 1 μg/mL to 16 μg/mL, concentration-dependent (FIG. 1)) is listed as “marked inhibition of thymidine incorporation”. Further, in the series with AsPC-1 cells [4] (immediate necrosis of cells), the “concentrations causing cytotoxicity (cell necrosis)” value is “higher than 16 μg/mL”. Besides, the “body weights of control and treated animals” value in series [5] (athymic mice) is “no significant difference”. Besides, the “toxicity through the treatment period” value in [5] (athymic mice) was “No toxicity was seen”. For the same compound, the “growth of subcutaneously transplanted AsPC-1 cells (tumor volume and tumor weight)” value in [5] (athymic mice (FIG. 6)) was “markedly inhibited the growth”. For the same compound, the “expression of P21” value in the series with p21 was “markedly increased”. The “activation of caspase 7” value in the series on caspase 7 is listed as “reduction in the amounts of the respective procaspase forms”.
